Measured values published in PMC6316436, “Design of Linear and Cyclic Mutant Analogues of Dirucotide Peptide (MBP82–98) against Multiple Sclerosis: Conformational and Binding Studies to MHC Class II” (Brain Sciences, 2018).
“Also recorded” adds a separate entry of the source. Where two headings read alike, the source gives them in different places. One block for each substance: values may come before it. Ends that are not written are not given here.

Experiments:
[1] = test system: HLA-DR2; assay: Competition binding of MBP82–98 analogues to HLA-DR2 (AMCA-labeled MBP83–99 competitor); design: species or system human; conditions: 37 °C; for binding affinity to HLA-DR2 (competition), in words: triplicates
[2] = test system: HLA-DR4; assay: Competition binding of MBP82–98 analogues to HLA-DR4 (AMCA-labeled HA306–318 competitor); design: species or system human; conditions: 37 °C; for binding to HLA-DR4, overall statement: competition with AMCA-labeled HA306–318, 48 h, pH 6.0
[3] = test system: autoreactive T cells; conditions: intravenous injections, preclinical and clinical studies; ref [15]; cited from earlier work
Source text: Dirucotide is licensed to BioMS Medical Corp and shared the development with Eli Lilly and Company. […] Thus, in the populat ...

[4] = test system: CD4^+CD25^+Foxp3^+ regulatory T cells; conditions: ref [18], cited from earlier work
Source text: (§1) Dirucotide is licensed to BioMS Medical Corp and shared the development with Eli Lilly and Company. […] As a result, further planned/scheduled clinical trials were terminated. […] It is likely that ...

[5] = test system: patients with MS; conditions: ref [16], cited from earlier work
Source text: as §1

[6] = test system: patients with relapsing remitting MS and secondary progressive MS; conditions: phase III, cited from earlier work
Source text: as §1

[7] = test system: experimental autoimmune encephalomyelitis (EAE); conditions: compared to linear PLP139–151 peptide; ref [30]; cited from earlier work
Source text: The cyclization of peptides is of great interest, since the partial stability of linear peptides restricts them as potential therapeutics. We have extensively studied cyclic peptides for their enhanced stability and their potential to be used as immunotherapeutics in MS due to their altered three-dimensional conformation. […] Similarly, cyclization of the agonist proteolipid protein (PLP139–151) epit ...

[8] = phase II, HLA-DR2 and HLA-DR4 patients with MS

- binding affinity to HLA-DR2 (competition), in words ([1]; 10-fold and 20-fold excess, AMCA-labeled MBP83–99, 48 h, pH 6.0, HPSEC fluorescence, relative to linear agonist MBP82–98): bound with much lower affinity
Substance: DENPVVHFFA^91NIVTPRT [linear MBP82–98 (Ala^91), linear altered peptide ligand of dirucotide, K91 mutated to Ala]
- binding affinity to HLA-DR2 (competition), in words ([1]; 50-fold excess, AMCA-labeled MBP83–99, 48 h, pH 6.0, HPSEC fluorescence): comparable to linear agonist MBP82–98 peptide at 50-fold excess
- binding to HLA-DR4, overall statement [2]: considerable higher affinity than cyclic MBP82–98

Substance: DENPVVHFFK^91NIVTPRT [dirucotide, 17-mer linear peptide MBP82–98]
- suppression of autoreactive T cells [3]: suppress autoreactive T cells
- induction of CD4+CD25+Foxp3+ regulatory T cells ([4]; following injection in patients with MS): induce CD4^+CD25^+Foxp3^+ regulatory T cells
- number of CD4+CD25+Foxp3+ regulatory T cells ([4]; six weeks and six months after treatment): increase in the number of CD4^+CD25^+Foxp3^+ regulatory T cells
- T cell responses against MBP82–98 epitope ([5]; injected in high concentrations in patients with MS): suppressed T cell responses against MBP82–98 epitope
- safety [5, 8]: safe
- time to disease progression [5, 8]: prolonged the median time to disease progression
- time to disease progression ([5]; phase II, HLA-DR2 and HLA-DR4 patients with MS, listed as Dirucotide): delayed disease progression
- benefit versus placebo ([6]; 612 subjects, ref [17]): did not provide any benefit compared to placebo
- primary and secondary endpoints ([6]; 612 subjects, ref [17]): no enhanced primary and secondary endpoints achieved
- benefit versus placebo ([6]; relapsing remitting MS and secondary progressive MS, ref [17],[18]): no added benefit was noted compared to the placebo group

Substance: cyclic PLP139–151: cyclized agonist proteolipid protein (PLP139–151) epitope (CHCLGKWLGHPDK; also: cyclized; UniProt P60202 139-151, looked up, fragment)
- disease burden and pathology [7]: low disease burden, and minimal inflammatory, demyelinating, and axonopathic pathology compared to the linear PLP139–151 peptide

Substance: cycloDENPVVHFFK^91NIVTPRT (head to tail) [cyclic MBP82–98, head to tail cyclized dirucotide]
- binding affinity to HLA-DR2 (competition), in words ([1]; 10-fold, 20-fold and 50-fold excess over AMCA-labeled MBP83–99 (1 μM), 48 h, 150 mM sodium phosphate pH 6.0, 15% acetonitrile, 0.1% Zwittergent-12, HPSEC fluorescence 350/450 nm): reduced affinity compared to its linear counterpart at 10-fold, 20-fold and 50-fold excess, but still with comparable affinity
- binding to HLA-DR2, overall statement ([1]; overall, competition with AMCA-labeled MBP83–99, 48 h, pH 6.0): strong binder with the HLA-DR2 allele; also recorded: binds to HLA-DR2 and HLA-DR4 alleles with considerable affinity; also recorded: higher affinity than MBP82–98 (A^91)
- binding affinity to HLA-DR4 (competition), in words ([2]; 10-fold, 20-fold, 50-fold excess over AMCA-labeled HA306–318 (1 μM), 48 h, 150 mM sodium phosphate pH 6.0, 15% acetonitrile, 0.1% Zwittergent-12, HPSEC fluorescence 350/450 nm, triplicates): considerably lower compared to its linear counterpart and linear APL MBP82–98 (Ala^91)
- binding to HLA-DR4, overall statement [2]: lower affinity binding to the HLA-DR4 allele; also recorded: binds to HLA-DR2 and HLA-DR4 alleles with considerable affinity
